Laboratory results published in patent US20180256673A1, “METHODS FOR TREATING FUNGAL INFECTIONS” (priority 2015, published 2018).
Values after ≈ are worked out from the molar mass of the structure shown. Values joined by “and” are separate entries in the source; they are usually repeats but may differ in a detail not shown here. Identical values can stand only once. Like-named read-outs stand apart in the source and are kept apart here. Starred links: 1 amine or outer side, 2 acyl side, 3 side chain; linkers in the order of their positions; H or OH if unused. Positions of bridges follow the written chain, without caps; N, C: chain ends. Non-standard residues stand in square brackets, D forms with d. Residues, ends and D or L forms follow the SMILES beside them. *: point of attachment. pTerphenylCO(4''-OnC5H11) = CCCCCOc1ccc(-c2ccc(-c3ccc(C(=O)*)cc3)cc2)cc1; Orn(4R-OH,5R-OH) = O=C([C@H](C[C@@H](O)[C@@H](O)N[*:3])N[*:1])[*:2]; hTyr(3S-OH,4S-OH) = N[C@H](C(=O)O)[C@H](O)[C@@H](O)c1ccc(O)cc1; Pro(3S-OH,4S-Me) = C[C@H]1CN[C@H](C(=O)O)[C@H]1O; Hyp = O=C(O)[C@@H]1C[C@@H](O)CN1

Assays:
[1] = tested on: C. albicans NRRL Y-477; type: cell-based, Candida albicans
Protocol: (§1) Spontaneous mutant selection. […] Three individual colonies from each strain were used to start cultures in RPMI. […] One milliliter aliquots were spread onto SDA plates containing drug with sterile glass beads. Starting viable count was enumerated by triplicate plating of serial dilutions of the starting inoculum. […] Glycerol stocks of putative mutant colonies were stored at −80° C. […] Spontaneous mutation frequencies were calculated by dividing the number of resistant colonies on a given plate by the starting inoculum plated. A subset of mutants (weighted heavily towards those selected with CMP1) were then evaluated by MIC and sequencing of FKS gene hot spot regions.

[2] = tested on: C. parapsilosis CP02; type: cell-based, Candida parapsilosis
Protocol: as §1

[3] = tested on: C. krusei ATCC 6258; type: cell-based, Candida krusei
Protocol: as §1

[4] = tested on: C. krusei ATCC 6258; assay: microbe, parasite or virus in culture; type: cell-based, Candida krusei; conditions: for MIC: Pichia kudriavzevii
[5] = tested on: C. albicans vaginal isolates; assay: Susceptibility testing of VVC clinical isolates at pH 7 and 4 (CLSI M27-A3); type: cell-based, Candida albicans; conditions: Candida albicans
[6] = tested on: C. glabrata vaginal isolates; assay: as above; type: cell-based, Candida glabrata; conditions: Nakaseomyces glabratus
[7] = tested on: Candida albicans; assay: Broth microdilution of invasive fungal isolates (CLSI M27-A3/M38-A2); type: cell-based
[8] = tested on: Candida glabrata; assay: microbe, parasite or virus in culture; type: cell-based
[9] = SDA, minimum concentration to cleanly inhibit growth

In the case of `CCCCCOc1ccc(-c2ccc(-c3ccc(C(=O)N[C@H]4C[C@@H](O)[C@@H](O)NC(=O)[C@@H]5[C@@H](O)[C@@H](C)CN5C(=O)[C@H]([C@@H](C)O)NC(=O)[C@H]([C@H](O)[C@@H](O)c5ccc(O)cc5)NC(=O)[C@@H]5C[C@@H](O)CN5C(=O)[C@H]([C@@H](C)O)NC4=O)cc3)cc2)cc1` [ANID, anidulafungin] ({pTerphenylCO(4''-OnC5H11)}-[Orn(4R-OH,5R-OH)]T[Hyp][hTyr(3S-OH,4S-OH)]T[Pro(3S-OH,4S-Me)]; lactam 1-C), the Median mutation frequency [1] is reported as 1.59E−07, the Plate concentration [1, 9] is reported as 0.015 µg/mL and the “Freq. (replicate mutation frequency)” value ([1]; replicate plates 1-3) is reported as 1.88E−07 and 1.59E−07 and 1.56E−07. For the same compound, the Median mutation frequency [2] was <1.04E−08, the Plate concentration [2, 9] was 16 µg/mL and the “Freq. (replicate mutation frequency)” value ([2]; replicate plates 1-3) was <1.04E−08 (2×) and <9.62E−09. For the same compound, the Median mutation frequency [3] was <3.38E−09, the Plate concentration [3, 9] was 0.25 µg/mL and the “Freq. (replicate mutation frequency)” value ([3]; replicate plates 1-3) was <3.38E−09 (2×) and <3.51E−09. It also gave an MIC fold-shift ([4]; ATCC 6258, WT to P20) of 2, an MIC ([4]; ATCC6258) of 0.125 µg/mL (≈ 0.11 µM) and an MIC ([4]; ATCC6258, read-out: MIC P20) of 0.125 µg/mL (≈ 0.11 µM). The MIC90 ([5]; 24 h, pH 4) was 0.03 µg/mL (≈ 0.0263 µM), the MIC90 ([5]; 24 h, pH 7) was 0.008 µg/mL (≈ 0.00702 µM) and the MIC90 ([5]; 48 h, pH 4) was 0.06 µg/mL (≈ 0.0526 µM). It also gave an MIC ([5]; 48 h, pH 4, fluconazole-resistant isolate 1, pH 4) of 0.03 µg/mL (≈ 0.0263 µM), an MIC ([5]; 48 h, pH 4, fluconazole-resistant isolate 2, pH 4) of 0.03 µg/mL (≈ 0.0263 µM) and an MIC ([5]; 48 h, pH 4, fluconazole-resistant isolate 3, pH 4) of 0.03 µg/mL (≈ 0.0263 µM). It also gave an MIC ([5]; 48 h, pH 4, fluconazole-resistant isolate 4, pH 4) of 0.06 µg/mL (≈ 0.0526 µM), an MIC ([5]; 48 h, pH 4, fluconazole-resistant isolate 5, pH 4) of 0.125 µg/mL (≈ 0.11 µM) and an MIC ([5]; 48 h, pH 4, fluconazole-resistant isolate 6, pH 4) of 0.06 µg/mL (≈ 0.0526 µM). The MIC ([5]; 48 h, pH 4, fluconazole-resistant isolate 7, pH 4) was 0.06 µg/mL (≈ 0.0526 µM), the MIC ([5]; 48 h, pH 4, fluconazole-resistant isolate 8, pH 4) was 0.06 µg/mL (≈ 0.0526 µM) and the MIC ([5]; 48 h, pH 4, fluconazole-resistant isolate 9, pH 4) was 0.25 µg/mL (≈ 0.219 µM). For the same compound, the MIC ([5]; 48 h, pH 4, fluconazole-resistant isolate 10, pH 4) was 0.06 µg/mL (≈ 0.0526 µM), the MIC90 ([5]; 48 h, pH 7) was 0.03 µg/mL (≈ 0.0263 µM) and the MIC ([5]; 48 h, pH 7, fluconazole-resistant isolate 1, pH 7) was 0.008 µg/mL (≈ 0.00702 µM). It also gave an MIC ([5]; 48 h, pH 7, fluconazole-resistant isolate 2, pH 7) of 0.03 µg/mL (≈ 0.0263 µM), an MIC ([5]; 48 h, pH 7, fluconazole-resistant isolate 3, pH 7) of 0.008 µg/mL (≈ 0.00702 µM) and an MIC ([5]; 48 h, pH 7, fluconazole-resistant isolate 4, pH 7) of 0.008 µg/mL (≈ 0.00702 µM). It also gave an MIC ([5]; 48 h, pH 7, fluconazole-resistant isolate 5, pH 7) of 0.016 µg/mL (≈ 0.014 µM), an MIC ([5]; 48 h, pH 7, fluconazole-resistant isolate 6, pH 7) of 0.008 µg/mL (≈ 0.00702 µM) and an MIC ([5]; 48 h, pH 7, fluconazole-resistant isolate 7, pH 7) of 0.008 µg/mL (≈ 0.00702 µM). For the same compound, the MIC ([5]; 48 h, pH 7, fluconazole-resistant isolate 8, pH 7) was 0.008 µg/mL (≈ 0.00702 µM), the MIC ([5]; 48 h, pH 7, fluconazole-resistant isolate 9, pH 7) was 0.125 µg/mL (≈ 0.11 µM) and the MIC ([5]; 48 h, pH 7, fluconazole-resistant isolate 10, pH 7) was 0.008 µg/mL (≈ 0.00702 µM). It also gave an MIC90 ([6]; 24 h, pH 4) of 0.125 µg/mL (≈ 0.11 µM), an MIC90 ([6]; 24 h, pH 7) of 0.03 µg/mL (≈ 0.0263 µM) and an MIC90 ([6]; 48 h, pH 4) of 0.25 µg/mL (≈ 0.219 µM). The MIC90 ([6]; 48 h, pH 7) was 0.06 µg/mL (≈ 0.0526 µM), the “Cumulative % of isolates inhibited at MIC 0.015 μg/mL” value ([7]; 251 isolates) was “(67.7) %” and the “Cumulative % of isolates inhibited at MIC 0.03 μg/mL” value ([7]; 251 isolates) was “(89.2) %”. For the same compound, the “Cumulative % of isolates inhibited at MIC 0.06 μg/mL” value ([7]; 251 isolates) was “(98.0) %”, the “Cumulative % of isolates inhibited at MIC 0.12 μg/mL” value ([7]; 251 isolates) was “(100.0) %” and the “Cumulative % of isolates inhibited at MIC ≤0.008 μg/mL” value ([7]; 251 isolates) was “(27.5) %”. For the same compound, the “Number of isolates inhibited at MIC 0.015 μg/mL” value ([7]; 251 isolates) was 101, the “Number of isolates inhibited at MIC 0.03 μg/mL” value ([7]; 251 isolates) was 54 and the “Number of isolates inhibited at MIC 0.06 μg/mL” value ([7]; 251 isolates) was 22. The “Number of isolates inhibited at MIC 0.12 μg/mL” value ([7]; 251 isolates) was 5, the “Number of isolates inhibited at MIC ≤0.008 μg/mL” value ([7]; 251 isolates) was 69 and the MIC50 ([7]; Candida albicans) was 0.015 µg/mL (≈ 0.0132 µM). The MIC90 ([7]; Candida albicans) was 0.06 µg/mL (≈ 0.0526 µM), the “Cumulative % of isolates inhibited at MIC 0.015 μg/mL” value [8] was “(1.0) %” and the “Cumulative % of isolates inhibited at MIC 0.03 μg/mL” value [8] was “(12.0) %”. For the same compound, the “Cumulative % of isolates inhibited at MIC 0.06 μg/mL” value [8] was “(74.0) %” and the “Cumulative % of isolates inhibited at MIC 0.12 μg/mL” value [8] was “(95.0) %”.
